Measured values taken from US7858585B2, “Hydrogels and uses thereof” (University of Delaware, priority 2005, dated 2010).

Tests used:
[1] = Oscillatory rheology of 0.5 wt % MAX1 and HPL8 hydrogels in DMEM, pH 7.4, 37° C.; type: physicochemical
Procedure: (§1) To a vial containing 1 mg of peptide, 100 μL of 25 mM HEPES, pH 7.4 was added resulting in a soluble 1 wt % peptide solution. To this solution, an equal volume of DMEM supplemented with 25 mM HEPES, pH 7.4 was added to initiate self-assembly, resulting in a 0.5 wt % hydrogel. All hydrogels were prepared by this method unless otherwise stated.
Oscillatory rheology experiments were performed on a TA Instruments rheometer (AR 2000) with a 25 mm diameter stainless steel parallel plate geometry with a gap height of 0.5 mm. All measurements were acquired at 37° C. For dynamic time sweeps (DTS) the hydrogels were prepared as stated above and quickly transferred to the rheometer where the storage modulus (G′) was monitored as a function of time, frequency=6 rad. sec-1 and strain=0.2%. For the shear thinning experiments, a DTS was preformed for 10 min at which time 1000% stain was applied for 30 seconds to shear thin the material. After which time, the strain was decreased to 0.2% and G′ monitored as a function of time. Dynamic frequency, dynamic strain and dynamic time sweep measurements measuring both G′ and the loss modulus (G″) are provided in FIG. 36.

[2] = CD kinetics of β-sheet formation ([θ]216) after addition of DMEM; type: physicochemical; conditions: 0.5 wt %, pH 7.4, 37° C.
Procedure: as §1
CD kinetic spectra were collected on a Jasco J-810 spectropolarimeter employing 0.1 mm quartz water-jacketed cell. Peptide samples were prepared as stated above, transferred to the cell at 37° C. The ellipiticity in millidegrees were monitored at 216 nm as a function of time. Following the kinetic measurement, a wavelength scan was recorded at 37° C. using a 2 nm step size. The concentrations of MAX1 and HPL8 stock solutions were determined by absorbance (λ220=15750 cm-1.M-1) after dilution with water. Mean residue ellipticity [θ]=(θobs/10.1.c)/r, where θobs is the measured ellipticity in millidegrees, l is the length of the cell (cm), c is the concentration (M) and r is the number of residues.

C3H10t1/2 cells = assay: Live/Dead assay of encapsulated cells after shear thin delivery; type: cell-based; conditions: 0.5 wt % hydrogel, three hours after delivery
Procedure: Lastly, the effect of shear thin delivery on cell viability was assessed by performing a Live-Dead assay on cells that had been encapsulated into a 0.5 wt % HPL8 hydrogel and subsequently shear thin delivered to a LSCM well FIG. 33c. In this micrograph, cells contained within the interior of the gel are visualized by viewing from the top of the gel (along the z-axis, depth of field is 90 μm.). Three hours after the gel/cell construct had been shear-thin delivered, calcien AM and ethidium homodimer were added to the top of the gel, which freely diffuse through the gel network, staining live cells green and dead cells red, respectively. […] In fact, the limited degree of cell death observed in FIG. 33c is nearly identical to that of the control experiment where cells were encapsulated in HPL8 hydrogel but not shear thin delivered (FIG. 35).
C3H10t1/2 cell growth conditions are 90% DMEM supplemented with 25 mM HEPES, 10% FBS, 5 mM L-glutamine, and 50 μg/mL Gentamicin at 37° C., 5% CO2. For confocal micrographs of hydrogels impregnated with pre-labeled cells, a suspension of 1.5 e6 cells/mL were incubated in a solution of 5 μM cell tracker green in DMEM for 45 min. […] Viability of encapsulated cells in 0.5 wt % hydrogels (before and after shear thinning) was assessed via a Live/Dead assay at 3 hr after encapsulation. […]

[3] = test system: C3H10t1/2 mesenchymal stem cells; assay: Encapsulation of mesenchymal stem cells in hydrogel, LSCM imaging of cell distribution; type: cell-based
Description: For example, FIG. 29 contains a Laser Scanning Confocal Microscopy (LSCM) cross-sectional view of C3H10t1/2 cells encapsulated within a 0.5 wt % MAX1 hydrogel. In this micrograph, cells contained within the interior of the gel are visualized from the side of the gel (along the y-axis, depth of field is 920 μm); the top and bottom of the image is the top and bottom of the gel, respectively. Cells are encapsulated by first dissolving 1.0 wt % MAX1 in buffer at pH 7.4. To this solution, an equal volume (50 μL) of DMEM cell culture medium containing 250,000 cells is added. The salt within the DMEM electrostatically screens the lysine side chain charges resulting in peptide folding and consequent self-assembly. This simple one-to-one addition of solutions affords gels impregnated with cells. However, it is clear in FIG. 29 that the hydrogelation kinetics of MAX1 are not fast enough to entrap the cells homogeneously since a majority of the cells sediment to the bottom of the gel sample well.
C3H10t1/2 cell growth conditions are 90% DMEM supplemented with 25 mM HEPES, 10% FBS, 5 mM L-glutamine, and 50 μg/mL Gentamicin at 37° C., 5% CO2. […] Viability of encapsulated cells in 0.5 wt % hydrogels (before and after shear thinning) was assessed via a Live/Dead assay at 3 hr after encapsulation. […]

VKVKVKVKV^DPPTKVEVKVKV-NH2 [HPL8]
G′ within the first 40 seconds ([1]; pH 7.4, 37° C.): > 100 Pa | G′ at five minutes ([1]; phase I initial gelation): 450 Pa | G′ within a minute ([1]; phase I initial gelation): > 100 Pa | time to completely fold and self-assemble affording gel [2]: under a minute | cell viability after shear thin delivery (C3H10t1/2 cells): majority of the cells remain viable | distribution of cells encapsulated in gel ([3]; 0.5 wt % gel, 250K cells in DMEM, pH 7.4, 37° C.): homogeneous distribution of cells | distribution of cells after shear thinning via syringe ([3]; 0.5 wt % gel/cell construct formed in a syringe): still retain the homogeneous cell distribution
